According to US20100029590A1, “METHODS FOR TREATING OR PREVENTING HEMORRHAGIC CYSTITIS USING A GLYCEROPHOSPHATE SALT” (PRELIEF INC., priority 2007, published 2010):

Tested on: patients suffering from radiation cystitis
Assay: Clinical observation of radiation cystitis patients after prostatic brachytherapy given oral Prelief® (CGP): average number of micturitions per night and symptoms
Format: in vivo, human
Conditions: for frequency of urination: six patients
Text: This example depicts a method of using calcium glycerophosphate (CGP) in treating radiation cystitis in a clinical setting. Methods similar to that exemplified herein, however, is equally applicable to using any glycerophosphate salt in treating or preventing any type of hemorrhagic cystitis.
All six patients, aging from 51 to 74 year old at the time, were under prostatic brachytherapy treatment. […] Two Prelief® tablets, each containing about 0.335 gram CGP, were orally administered to each patient three times a day starting at about 0 to 8 months after the brachytherapy. […] Some patients were also treated with another therapy after the radiation, such as by a stent, or with the administration of AINES, Trospium Chloride, or Tamsulosina. On their post brachytherapy visitations, each patient was asked, among other things, the average number of micturitions per night.
This is in comparison to up to 12 times per night expected micturations in severe cases of this type when patients are given regular medications. The frequency of urination was further reduced by continuing oral administration of CGP.
14, 2002. […] Oral administration of CGP was again reported to be effective in reducing symptoms of hemorrhagic cystitis, e.g., the frequency of urination was reduced to about 7 times or about 2.5 times per night after oral administration of CGP for about 4 months or about 9 months, respectively, following the removal of the stent.

calcium glycerophosphate [CGP]
frequency of urination, patient #1 (patient #1, about 1 month following removal of a stent (increased symptoms)): about 11 times per night | frequency of urination, patient #1 (patient #1, about 3 months following brachytherapy, before oral CGP (baseline)): about 11 times per night | frequency of urination, patient #1 (patient #1, after oral administration of CGP for about 5 months): about 7 times per night | frequency of urination, patient #1 (patient #1, oral CGP for about 4 months following removal of the stent): about 7 times per night | frequency of urination, patient #1 (patient #1, oral CGP for about 9 months following removal of the stent): about 2.5 times per night | symptoms of radiation cystitis (reported by each of the six patients after oral administration of CGP): Reduced symptoms of radiation cystitis | pain in bladder (reported by the patients, oral CGP (data not shown)): reduced pain in bladder | frequency of urination (after oral administration of CGP for about three months): 4.5-7 times per night | frequency of urination (before oral administration of CGP (baseline)): 8-11 times per night | frequency of urination (succeeding seven months of oral CGP): 3-7 times per night
